The test system of data set [1] is NPC Chinese Hamster Ovary (CHO) cells. The data set can be described thus: Relative lysosomal volume via LysoTracker, NPC CHO cells. In kind it is cell-based. Conditions: 1 mM, 72 hours, p<0.01 versus untreated NPC1-null. An excerpt:
Relative lysosomal volume was quantified via LysoTracker.

In data set [2] the test system is downbeat nystagmus patients. The data set can be described thus: Case studies, downbeat nystagmus patients. Conditions: downbeat nystagmus Patient 2. It is filed as in vivo, human.
The test system of data set [3] is downbeat nystagmus patients. The data set can be described thus: Case studies, downbeat nystagmus patients. It is filed as in vivo, human. Conditions: downbeat nystagmus Patient 1; 10 mg twice daily for four weeks. An excerpt: The patient was diagnosed with downbeat nystagmus: the patient was severely impaired by blurred vision (oscillopsia) due to the nystagmus, and experienced difficulties while reading and writing. The patient's visual acuity was: right 0.75, left 0.67, binocular 0.83, and the downbeat nystagmus was documented by video-oculography. […] The patient could partially suppress the nystagmus by visual fixation, as evaluated using a target center (dot presented in the center of a display for 30 seconds, FIG. 13A) and in complete darkness using goggles covered with special glasses for 45 seconds (FIG. 13B). The results (median of slow phase velocity, SPV) were as follows: Target Center-horizontal: −0.02°/s, vertical: 2.41°/s; Complete Darkness-horizontal: 0.05°/s, vertical: 3.27°/s (FIG. 13C).

The subject of data set [4] is restless leg syndrome patients. The data set can be described thus: Case studies, restless legs syndrome (IRLS score). It is filed as in vivo, human. An excerpt: A widely reported rating scale known as the International Restless Leg Syndrome Study Group Rating Scale (“IRLS”) was developed by the International Restless Legs Syndrome Study Group (“IRLSSG”) (http://www.irlssg.org/) (Walters et al., Validation of the International Restless Legs Syndrome Study Group rating scale for restless legs syndrome. Sleep medicine. 2003 Apr. 1; 4(2):121-32). The IRLS is a 10-item scale with scores ranging from 0 (no symptoms) to 40. Scores >30 are considered very severe, severe (Score 21-30), moderate (scores 11-20) and ≤10, mild. Use of the scale is common for clinical assessment, research and therapeutic trials with RLS. In one embodiment, treatment with leucine, acetyl-leucine, or a pharmaceutically acceptable salt thereof as described herein decreases the subject's International Restless Leg Syndrome Study Group Rating Scale (“IRLS”) compared to a baseline. In one embodiment, the IRLS is reduced compared to baseline by at least 10%, at least 20%, at least 30%, at least 40%, or at least 50%. In one embodiment, the IRLS is reduced by at least 60%, at least 70%, at least 80%, at least 90%, or 100%.
The patient in this case study was a person showing proximal weakness of the so lower limb. […] Upon consultation, they reported no sensory symptoms but complained of a restless leg syndrome at night and during resting periods of the day, occurring over the course of the last two years. Pre-treatment with dopamine agonist were without symptom relief. Serum creatine kinase activity was only mildly elevated at up to 400 IU/L. The patient was evaluated using the RLS diagnostic index (RLS-DI) (see Walters et al., Sleep Med 2003; 4(2):121-132;). The patient's International Restless Legs Syndrome Rating Scale score (IRLS) was 36, and thus a severe RLS was diagnosed. […] Re-introduction of the treatment re-declined the score to 8 after 2 weeks. Continuation of treatment over more than 22 weeks stabilized the IRLS score at 8.
The patient in this case study was a person showing proximal weakness of the lower limb. […] Upon consultation, they reported no sensory symptoms but complained of a restless leg syndrome at night and during resting periods of the day, occurring over the course of the last eight years. […] Serum creatine kinase activity was mildly elevated at 300 IU/L. Iron measurements and all additional lab investigations were normal. The patient was evaluated using the RLS-DI and the patient's IRLS was 32, and thus a moderate to severe RLS was diagnosed. […] Continuation of treatment over more than 28 weeks stabilized the IRLS score at 8.
The patient in this case study was a person showing mild proximal weakness of the upper and lower limbs slowly progressive. The patient had been diagnosed (genetically confirmed) with McArdle myopathy about 16 years ago. Upon consultation, they reported no sensory symptoms but complained about a severe fatigue and reduced stamina. The patient further reported a restless leg syndrome at night and during resting periods of the day, occurring over the course of the last 12 years. […] Serum creatine kinase activity was mildly elevated at 200 IU/L; however, the patient had 5 episodes of rhabdomyolysis during the past 20 years. Repeated iron measurements and all additional lab investigations were normal. The patient was evaluated using the RLS-DI and the patient's IRLS was 34, and thus a severe RLS was diagnosed. […] Continuation of treatment over more than 30 weeks stabilized the IRLS score at 10. In addition, the patient's fatigue declined (Fatigue Severit Scale: 9 (minimum) to 63 (maximum)) from 53 to 28.

Data set [5] relates to MSA-P patients. The data set can be described thus: Case studies, multiple system atrophy Parkinson type (MSA-P) patients. In kind it is in vivo, human. Conditions: MSA-P Patient 3. An excerpt: Medication was stopped. […] The patient evaluated after one month on acetyl-DL-leucine. […] Episodes of mental confusion completely disappeared. The patient's cognitive structure seemed much clearer and straighter. […] The patient's spouse supported continuing the medication.

Data set [6] deals with progressive supranuclear palsy patients. Description: Case studies, progressive supranuclear palsy patients. In kind it is in vivo, human. The procedure: After 27 days of acetyl-leucine treatment, medication was stopped and the patient was re-examined 60 days later. […] Gait analysis was performed before treatment commenced. […] Gait analysis was performed before treatment commenced. After 17 days of treatment, medication was stopped and the patient was re-examined 4 days later. […] Gait analysis was performed before treatment commenced. After three weeks of treatment, medication was stopped and the patient was re-examined.

Data set [7] relates to Lewy Body dementia patient. Description: Case study, Lewy Body dementia. Conditions: Levodopa 100 mg 4× daily and Quetiapin 25 mg at night. In kind it is in vivo, human. The method, then:
The patient started taking acetyl-leucine (3 g/day for one week; 5 g/day thereafter) and was evaluated after four weeks. […] Medication was reduced to 3 g/day, and the patient was instructed to stop medication about two weeks later.

Data set [8] concerns frontotemporal dementia with parkinsonism patient. The data set can be described thus: Case study, frontotemporal dementia with parkinsonism. It is filed as in vivo, human. Conditions: frontotemporal dementia with parkinsonism patient; treatment with L-Dopa and Ropinirol. An excerpt:
After approximately one month of acetyl-leucine treatment, medication was stopped and the patient was re-examined 13 days later.

Data set [9] relates to corticobasal syndrome patient. The data set can be described thus: Case study, corticobasal syndrome. It is filed as in vivo, human. The method, then: Gait analysis was performed before treatment commenced.
Data set [10] has as its system MSA-P patients. The data set can be described thus: Case studies, multiple system atrophy Parkinson type (MSA-P) patients. In kind it is in vivo, human. Conditions: MSA-P Patient 1; 100/25 mg 3×daily.
The next data set deals with ALS patients. The data set can be described thus: Case studies, amyotrophic lateral sclerosis (ALS) patients. Conditions: ALS Patient 1; medication started around the time of ALS diagnosis. It is filed as in vivo, human. An excerpt: The results were documented by video.
For data set [11], the system named is rat model of an acute unilateral labyrinthectomy. Conditions: Zwergal et al. (2016); Gunther et al. (2015); cited from earlier work.

For `CC(C)CC(N)C(=O)O` (racemic) [DL-leucine], in [1], the “Lysosomal volume (LysoTracker)” value is recorded as “significantly reduced lysosomal volume”.

With `Nc1ccncc1` [4-aminopyridine, reference compound], the Clinical response entry in [2] is “did not benefit”; in data set [3], “did not give rise to any benefit”.

As for `CC(C)C[C@@H](N)C(=O)O` [D-leucine], the “Lysosomal volume (LysoTracker)” value in [1] is “significantly reduced lysosomal volume”.

Take `N[C@@H](Cc1ccc(O)c(O)c1)C(=O)O` [L-Dopa, reference compound]: the “Symptom relief (pre-treatment)” value in data set [4] (RLS Patient 2) and in data set [4] (RLS Patient 3) was “without sustained symptom relief” throughout. The Tolerability result with MSA-P patients [5] was “suspended due to side effects”. For the same molecule, the Clinical response result is recorded as “little improvement” in data set [6] (PSP Patient 1); “no levodopa response” in data set [6] (PSP Patient 2); “no levodopa response” in data set [6] (PSP Patient 3); “slight levodopa response” in data set [6] (PSP Patient 4); “improved the symptomatology” in data set [7]; “little improvement” in [8]. Further, the Clinical response entry is on record as “no improvement” in [9] and “discreet Levodopa response” with MSA-P patients [10].

With `CC(C)C[C@H](N)C(=O)O` [L-leucine], the “Lysosomal volume (LysoTracker)” value in data set [1] is reported as “significantly reduced lysosomal volume”.

In the case of `OCCOCCN1CCN(C2=Nc3ccccc3Sc3ccccc32)CC1` [Quetiapin, reference compound], the Clinical response entry in data set [7] is reported as “improved the symptomatology”.

Regarding `Nc1nc2ccc(OC(F)(F)F)cc2s1` [Riluzol, reference compound], in the data set on ALS patients, the Clinical symptomatology entry is listed as “clinical symptomatology remained unchanged”.

`CCCN(CCC)CCc1cccc2c1CC(=O)N2` [Ropinirol, reference compound]: the Clinical response entry in data set [8] is “little improvement”.

In the case of `CC(=O)N[C@H](CC(C)C)C(=O)O` [acetyl-D-leucine], the “Lysosomal volume (LysoTracker)” value in data set [1] is reported as “significantly reduced lysosomal volume”.

For the molecule `CC(=O)N[C@@H](CC(C)C)C(=O)O` [acetyl-L-leucine], the “Effect on postural compensation” value in [11] is reported as “significant effect”. Further, the “Lysosomal volume (LysoTracker)” value in data set [1] is reported as “significantly reduced lysosomal volume”.

As to `CC(C)C[C@H](CN)CC(=O)O` [pregabaline, reference compound], the “Symptom relief (pre-treatment)” value in data set [4] (RLS Patient 2) and in [4] (RLS Patient 3) was “without sustained symptom relief” throughout.

The record behind these values is patent US11793782B2, “Therapeutic agents for neurodegenerative diseases” (priority 2017, dated 2023).
